{"source": "patent US20230310432A1", "about": "(JULIUS-MAXIMILIANS-UNIVERSITÄT WÜRZBURG, priority 2017, published 2023)", "key": {"[1]": {"test_system": "CD8+ T cells expressing a CD19 CAR with CD28 costimulatory domain", "test": "Bioluminescence-based cytotoxicity assay, K562/CD19 target cells", "assay_type": "cell-based, human"}, "[2]": {"test_system": "CD8+ T cells expressing a ROR1 CAR with 4-1BB costimulatory domain", "test": "Bioluminescence-based cytotoxicity assay, K562/ROR1 target cells", "assay_type": "cell-based, human"}, "[3]": {"test_system": "CD8+ T cells expressing a CD19 CAR with 4-1BB costimulation", "test": "Cytokine production and secretion (IFN-γ, IL-2 ELISA), co-culture with K562/CD19", "assay_type": "cell-based, human", "conditions": "20 h"}, "[4]": {"test_system": "CD8+ T cells expressing a ROR1 CAR with 4-1BB costimulatory domain", "test": "Cytokine production and secretion (IFN-γ, IL-2 ELISA), co-culture with K562/ROR1", "assay_type": "cell-based, human", "conditions": "dasatinib ≥50 nM; 20 h", "experimental": "Cytokine secretion: 5×10^4 T-cells were plated in duplicate or triplicate wells with target cells at an E:T ratio of 4:1 (K562/ROR1, K562/CD19, RCH-ACV), and IFN-γ and IL-2 were measured by ELISA, or cytokine panels were measured by multiplex cytokine immunoassay (Luminex) in supernatant removed after 20-h incubation. Specific cytokine production was calculated by subtracting the amount of cytokines released by unstimulated CAR-T cells from the amount of cytokines released after antigen-specific stimulation. The remaining cytokine secretion in % as shown in the diagrams is normalized to CAR-T cells in the absence of dasatinib-treatment (100%).\nCAR-T cells were co-cultured with K562 that the inventors had transduced with either CD19 (for testing CD19 CAR-T cells) or ROR1 (for testing ROR1 CAR-T cells). Dasatinib was added to the assay medium at the beginning of the co-culture assay. ELISA was performed to detect IFN-γ and IL-2 in supernatant removed from the co-culture."}, "[5]": {"test_system": "CD8+ T cells expressing a CD19 CAR with 4-1BB costimulation", "test": "CFSE proliferation assay, co-culture with K562/CD19", "assay_type": "cell-based, human", "conditions": "72 h"}, "[6]": {"test_system": "CD4+ T cells expressing a CD19 CAR with CD28 costimulatory domain", "test": "Multiplex cytokine analysis, co-culture with K562/CD19", "assay_type": "cell-based, human", "conditions": "dasatinib ≥25 nM; 20 h; compared to non-dasatinib treated CAR-T cells", "quoted_text": "A multiplex cytokine analysis was performed in supernatant removed from the co-culture."}, "[7]": {"test_system": "CD8+ T cells expressing a SLAMF7 CAR with CD28 costimulatory domain", "test": "Bioluminescence-based cytotoxicity assay, K562/SLAMF7 target cells", "assay_type": "cell-based, human"}, "[8]": {"test_system": "NFAT/GFP reporter in CD8+ CD19 CAR/4-1BB T cells", "test": "NFAT/GFP reporter assay during sequential stimulation", "assay_type": "cell-based, human", "conditions": "day 1"}, "[9]": {"test_system": "NFAT/GFP reporter in CD4+ T cells co-expressing the CD19 CAR with 4-1BB costimulatory domain", "test": "NFAT/GFP reporter assay during sequential stimulation", "assay_type": "cell-based, human"}, "[10]": {"test_system": "CD8+ T cells expressing a ROR1 CAR with 4-1BB costimulatory domain", "test": "Bioluminescence-based cytotoxicity assay, RCH-ACV target cells", "assay_type": "cell-based, human", "conditions": "100 nM dasatinib; t=8 hours; >90% untreated"}, "[11]": {"test_system": "CD19 CAR/4-1BB-T cells; Raji tumor cells", "test": "Tumor burden by bioluminescence imaging, intermittent dasatinib (Example 11)", "assay_type": "in vivo, NSG mice", "conditions": "day 8; CAR-T cells and intermittent dasatinib 5 mg/kg; 1.9e10 without dasatinib", "experimental": "The Institutional Animal Care and Use Committee of UKW approved all mouse experiments. NOD.Cg-Prkdc^scidIl2rg^tm1wjl/SzJ (NSG) mice (female, 6-8 week old) were purchased from Charles River (Sulzfeld, Germany). Mice were inoculated with 1×10^6 Raji/ffluc_GFP tumor cells via tail vein injection (i.v.). Mice were treated with 5×10^6 CAR-modified or control untransduced T-cells (CD4:CD8 ratio=1:1) via tail vein injection (i.v.). […] Tumor burden and distribution was analyzed by serial bioluminescence imaging on an IVIS Lumina imager (Perkin Elmer, Baesweiler, Germany): mice received i.p. injections of 0.3 mg/g luciferin and images were acquired 10 minutes after luciferin injection in small binning mode at an acquisition time of 1 s to 1 min to obtain unsaturated images. Data were analyzed using LivingImage Software (Caliper) and the average radiance (or photon flux) analyzed in regions of interest that encompassed the entire body of each individual mouse. Mice were sacrificed at the end of the experiment and human T cells in bone marrow, peripheral blood and spleen were analyzed by flow cytometry. The presence of (human) cytokines in serum was measured using multiplex cytokine analysis.\nIn brief, cohorts of 1-12 mice were inoculated with 1×10^6 firefly-luciferase_GFP-transduced Raji tumor cells on day 0. […]"}, "[12]": {"test_system": "PD-1 on CD19 CAR/4-1BB T cells", "test": "Surface expression of PD-1 on human CAR-T cells by flow cytometry, intermittent dasatinib", "assay_type": "in vivo, NSG mice", "conditions": "intermittently treated (CAR/+)", "experimental": "In brief, cohorts of 1-12 mice were inoculated with 1×10^6 firefly-luciferase_GFP-transduced Raji tumor cells on day 0. […] Serial bioluminescence imaging was performed to determine tumor burden on day 7, 9 and 15.\nBased on the mouse model introduced in Example 11 (FIG. 21A), the inventors analyzed the surface expression of PD-1 on human CAR-T cells in bone marrow (BM), peripheral blood (PB) and spleen (SP) by flow cytometry."}, "[13]": {"test_system": "CD8+ T cells expressing a CD19 CAR with 4-1BB costimulation", "test": "Bioluminescence-based cytotoxicity assay, K562/CD19 target cells", "assay_type": "cell-based, human", "conditions": "dasatinib 100 nM added 1 hour after the start of the co-culture; t=10 hours; >90% without dasatinib"}, "[14]": {"conditions": "dasatinib 100 nM added 2 hours after the start of the co-culture"}}}
{"smiles": "Cc1nc(Nc2ncc(C(=O)Nc3c(C)cccc3Cl)s2)cc(N2CCN(CCO)CC2)n1", "note": "[dasatinib]", "values": [{"measurement": "specific lysis of target cells", "setting": "[1]; dasatinib 50 nM, t=5 h, 52% by non-dasatinib treated", "value": "less than 23%"}, {"measurement": "residual specific lysis of target cells", "setting": "[1]; dasatinib 50 nM, t=10 h, 91% by non-dasatinib treated", "value": 47, "unit": "%"}, {"measurement": "specific lysis of target cells", "setting": "[1]; dasatinib 100 nM, any given time point, 91% by non-dasatinib treated at t=10 h", "value": "less than 10%"}, {"measurement": "specific lysis of target cells", "setting": "[2]; dasatinib 25 nM, up to t=5 h, 73% by non-dasatinib treated", "value": "less than 2%"}, {"measurement": "specific lysis of target cells", "setting": "[2]; dasatinib 50 nM, any given timepoint, 94% by non-dasatinib treated at t=10 h", "value": "less than 2%"}, {"measurement": "residual IFN-γ production (untreated CAR-T cells=100%)", "setting": "[3]; [14]", "value": 51, "unit": "%"}, {"measurement": "residual IL-2 production (untreated CAR-T cells=100%)", "setting": "[3]; [14]", "value": 28, "unit": "%"}, {"measurement": "residual specific IFN-γ production compared to non-dasatinib treated CAR-T cells", "setting": "[3]; dasatinib ≥6.25 nM", "value": "less than 45%"}, {"measurement": "residual specific IL-2 production compared to non-dasatinib treated CAR-T cells", "setting": "[3]; dasatinib ≥6.25 nM", "value": "less than 60%"}, {"measurement": "residual specific IL-2 production compared to non-dasatinib treated CAR-T cells", "setting": "[3]; dasatinib ≥50 nM", "value": "less than 1%"}, {"measurement": "residual IFN-γ production compared to non-dasatinib treated CAR-T cells", "setting": "[4]", "value": "less than 3%"}, {"measurement": "residual IL-2 production compared to non-dasatinib treated CAR-T cells", "setting": "[4]", "value": "less than 8.5%"}, {"measurement": "remaining proliferation", "setting": "[5]; 0.1 μM dasatinib", "value": "< 5.6", "unit": "%"}, {"measurement": "residual proliferation compared to non-dasatinib treated CAR-T cells", "setting": "[5]; dasatinib ≥3.125 nM", "value": "less than 80%"}, {"measurement": "residual proliferation compared to non-dasatinib treated CAR-T cells", "setting": "[5]; dasatinib ≥12.5 nM", "value": "less than 45%"}, {"measurement": "residual proliferation compared to non-dasatinib treated CAR-T cells", "setting": "[5]; dasatinib ≥50 nM", "value": "less than 8%"}, {"measurement": "reduction of production and secretion of GM-CSF, IFN-γ, IL-2, IL-4, IL-5, IL-6, IL-8", "setting": "[6]", "value": "> 95", "unit": "%"}, {"measurement": "specific lysis of target cells", "setting": "[7]; dasatinib 20, 40 and 60 nM, t=6 h, 67% by non-dasatinib treated", "value": "less than 21%"}, {"measurement": "residual specific lysis of target cells", "setting": "[7]; dasatinib 20, 40 and 60 nM, t=12 h, 85% by non-dasatinib treated", "value": "less than 35%"}, {"measurement": "specific lysis of target cells", "setting": "[7]; dasatinib ≥80 nM, any given time point, 85% by non-dasatinib treated at t=12 h", "value": "less than 3%"}, {"measurement": "GFP MFI", "setting": "[8]; dasatinib added one hour after assay set up, 1949 in untreated stimulated CAR-T cells", "value": 734}, {"measurement": "GFP MFI", "setting": "[8]; dasatinib present from the beginning", "value": 137}, {"measurement": "GFP MFI", "setting": "[9]; day 1, dasatinib present from the beginning", "value": 317}, {"measurement": "GFP MFI", "setting": "[9]; day 3, treated at 1 hour after assay set up, 2499 in untreated", "value": 326}, {"measurement": "GFP MFI", "setting": "[9]; day 3, treated from the beginning, 2499 in untreated", "value": 108}, {"measurement": "specific lysis", "setting": "[10]", "value": "< 5", "unit": "%"}, {"measurement": "average bioluminescence signal", "setting": "[11]", "value": "5.6e9", "unit": "p/s/cm*2/sr"}, {"measurement": "PD-1 mean fluorescence intensity (MFI) on CAR-T cells, peripheral blood", "setting": "[12]; 4110 not exposed", "value": 2775}, {"measurement": "PD-1 mean fluorescence intensity (MFI) on CAR-T cells, spleen", "setting": "[12]; 4318 not exposed", "value": 23652}, {"measurement": "PD-1 mean fluorescence intensity (MFI) on CAR-T cells, bone marrow", "setting": "[12]; 9461 not exposed", "value": 7025}, {"measurement": "specific lysis", "setting": "[13]", "value": 34, "unit": "%"}]}
